Results published in US20130072385A1, “METHODS FOR DELAYING BUD BREAK BY APPLYING ABA ANALOGS” (priority 2011, published 2013).

How the values were obtained:
Concord grapevines [1] = test: Repeated spray of potted Concord grapevines during the bud break period; type: in vivo; conditions: for Average number of broken buds per vine: 1000 ppm in 0.05% Silwet L77, repeated spray
Experimental: A study was conducted to determine the effect of spraying Concord grapevines with ABA or ABA analog PBI-429 during bud break. Potted concord grapevines were placed in greenhouse conditions to promote bud break and the vines were repeatedly sprayed with ABA or ABA analog solutions. The vines were sprayed 2, 4, 8, 12 and 14 days after exposure of the vines into bud break promoting temperatures. Bud break was rated 6, 7, 8, 11, 12, 13, 14, 15, 19 and 20 days after vines were placed in warm bud break promoting conditions.

Seyval Blanc grapevines = test: Soil drench of potted grapevines near the time of bud break, Seyval Blanc; type: in vivo
Experimental: (§1) A study was conducted to determine the effect of ABA applied to the soil of potted grapevines near the time of bud break. Eco-dormant bare-root Seyval Blanc and Canadice grapevines were purchased from Concord Nurseries, North Collins, N.Y. Vines were planted in pots of Promix potting mixture and held in a 5° C. dark chamber prior to treatment. Plants were moved from the 5° C. chamber to a greenhouse set to 20° C. night/25° C. day with a 12 hour light and 12 hour dark light cycle to promote bud break. One group of 5 plants was treated with 250 ml of 1000 ppm ABA (250 mg) as a soil drench 2 days after moving the vines to warm conditions. Another group of vines was treated 6 days after warming and another group of 5 plants was treated 10 days after warming. With the Seyval Blanc grapevines one group of 5 plants was treated at all 3 timings 2, 6, and 10 days after warming (750 mg total). Another group of 5 vines was not treated and acted as an untreated control. […]

Concord grape vines = test: Spring spray of eco-dormant field grown Concord grape vines, bud break; type: in vivo, Concord grapevines; conditions: sprayed 2 times in spring
Experimental: A study was conducted to evaluate the effect of spraying eco-dormant Concord grape vines with ABA or ABA analog plus surfactants on bud break. Mature field grown Concord grape vines were sprayed to runoff 2 times in the spring after pruning and before bud swell. Three replicates of 3 vines each were treated with each treatment solution. Treatments were arranged in a randomized complete block design down a single vineyard row, Bud break was monitored by counting the number of broken buds of the distal 5 buds on 4 proximal canes on the middle vine of each 3 vine replicate. Bud break was only very slightly delayed by any of the treatments compared to the water sprayed control (Table 1).

Canadice grapevines = test: Soil drench of potted grapevines near the time of bud break, Canadice; type: in vivo
Experimental: as §1

perennial plant = test: Applicants' field studies over several years on perennial plant bud break; type: in vivo; conditions: even at high levels, at every application time
Source text: In order to determine the role ABA had on perennial plant bud break, Applicants conducted field studies for several years. After many experiments.

Concord grapevines [2] = test: Fall soil drench of potted Concord grapevines, bud break the following spring; type: in vivo; conditions: 1000 ppm (1000 mg/pot) fall soil drench
Experimental: A study was conducted to determine the effect of application of ABA or ABA analog as a soil drench in the fall on bud break of potted Concord grapevines the following spring. Two year old eco-dormant Concord grapevines were obtained from a Concord Nurseries in the spring. Bare-root vines were planted in 14 liter pots filled with Promix BX (available from Premier Horticulture Inc. Quakertown, Pa.) and grown outside for about 5 months (May October) prior to treatment. Plants received irrigation as needed and fertilized weekly (1 g/L all purpose fertilizer 20-20-20, The Scotts Company, Marysville, Ohio). Uniform plants were selected for the study. A total of 1000 mL of water or chemical solution was applied to the soil of each plant.
After chemical treatment, the ten replicate plants per treatment were arranged in a randomized complete block experimental design. The potted vines were surrounded by bark chips the depth of the soil in the pot to insulate the roots and prevent cold damage. The plants became dormant for the winter. In the following spring the vines were pruned to 5 buds per vine before bud break and bud break was monitored over time (Table 4). The buds were rated for bud break periodically on a scale from 1 for no growth to 6 for three or more leaves showing
Potted Concord grapevines were treated with 1000 mL water, solution containing 1000 mg ABA or solution containing 100 mg PBI-429. The dose of RBI-429 was used at one-tenth of ABA dose based on the preliminary results.

[3] = 1000 ppm soil drench 2 days after warming, evaluated 13 days after warming
[4] = 1000 ppm soil drench 2 days after warming, evaluated 14 days after warming
[5] = 1000 ppm soil drench 2 days after warming, evaluated 15 days after warming
[6] = 1000 ppm soil drench 2 days after warming, evaluated 16 days after warming
[7] = 1000 ppm soil drench 6 days after warming, evaluated 13 days after warming
[8] = 1000 ppm soil drench 6 days after warming, evaluated 14 days after warming
[9] = 1000 ppm soil drench 6 days after warming, evaluated 15 days after warming
[10] = 1000 ppm soil drench 6 days after warming, evaluated 16 days after warming
[11] = 1000 ppm soil drench 10 days after warming, evaluated 13 days after warming
[12] = 1000 ppm soil drench 10 days after warming, evaluated 14 days after warming
[13] = 1000 ppm soil drench 10 days after warming, evaluated 15 days after warming
[14] = 1000 ppm soil drench 10 days after warming, evaluated 16 days after warming

## (S)-5-(1-hydroxy-2,6,6)-trimethyl-4-oxo-2-cyclohexen-1-yl)-3-methyl-(2 Z,4E)-pentadienoic acid [ABA]
Concord grapevines [1]; 6 days after warming
  Average number of broken buds per vine: 0.2
Concord grapevines [1]; 7 days after warming
  Average number of broken buds per vine: 0.2
Concord grapevines [1]; 8 days after warming
  Average number of broken buds per vine: 0.8
Concord grapevines [1]; 11 days after warming
  Average number of broken buds per vine: 2.8
Concord grapevines [1]; 12 days after warming
  Average number of broken buds per vine: 3.2
Concord grapevines [1]; 13 days after warming
  Average number of broken buds per vine: 3.8
Concord grapevines [1]; 14 days after warming
  Average number of broken buds per vine: 4.8
Concord grapevines [1]; 15 days after warming
  Average number of broken buds per vine: 5.3
Concord grapevines [1]; 19 days after warming
  Average number of broken buds per vine: 7.0
Concord grapevines [1]; 20 days after warming
  Average number of broken buds per vine: 7.0
Concord grapevines [1]; repeated spray application during the bud break period
  Effect on average number of broken buds over time: not significantly impacted
Seyval Blanc grapevines; 1000 ppm soil drench 2, 6 and 10 days after warming, evaluated 13 days after warming
  Average number of broken buds per vine: 1.2
Seyval Blanc grapevines; 1000 ppm soil drench 2, 6 and 10 days after warming, evaluated 14 days after warming
  Average number of broken buds per vine: 4.4
Seyval Blanc grapevines; 1000 ppm soil drench 2, 6 and 10 days after warming, evaluated 15 days after warming
  Average number of broken buds per vine: 4.8
Seyval Blanc grapevines; 1000 ppm soil drench 2, 6 and 10 days after warming, evaluated 16 days after warming
  Average number of broken buds per vine: 7.0
Seyval Blanc grapevines; 1000 ppm soil drench 13-16 days before bud break, cultivar not stated (Seyval Blanc and Canadice study)
  Delay of bud break: 3.5 days
Seyval Blanc grapevines; [3]
  Average number of broken buds per vine: 0.4
Seyval Blanc grapevines; [4]
  Average number of broken buds per vine: 2.2
Seyval Blanc grapevines; [5]
  Average number of broken buds per vine: 3.6
Seyval Blanc grapevines; [6]
  Average number of broken buds per vine: 6.8
Seyval Blanc grapevines; [7]
  Average number of broken buds per vine: 0.2
Seyval Blanc grapevines; [8]
  Average number of broken buds per vine: 1.6
Seyval Blanc grapevines; [9]
  Average number of broken buds per vine: 2.6
Seyval Blanc grapevines; [10]
  Average number of broken buds per vine: 6.8
Seyval Blanc grapevines; [11]
  Average number of broken buds per vine: 1.8
Seyval Blanc grapevines; [12]
  Average number of broken buds per vine: 6.0
Seyval Blanc grapevines; [13]
  Average number of broken buds per vine: 8.6
Seyval Blanc grapevines; [14]
  Average number of broken buds per vine: 11.4
Concord grape vines; April 24, 1,000 ppm ABA plus 0.5% Brij 98
  Average percent broken buds: 8%
Concord grape vines; April 24, 1,000 ppm plus 0.5% Pentrabark
  Average percent broken buds: 2%
Concord grape vines; April 24, 10,000 ppm ABA plus 0.5% Brij 98
  Average percent broken buds: 5%
Concord grape vines; April 30, 1,000 ppm ABA plus 0.5% Brij 98
  Average percent broken buds: 13%
Concord grape vines; April 30, 1,000 ppm plus 0.5% Pentrabark
  Average percent broken buds: 13%
Concord grape vines; April 30, 10,000 ppm ABA plus 0.5% Brij 98
  Average percent broken buds: 18%
Canadice grapevines; [3]
  Average number of broken buds per vine: 0
Canadice grapevines; [4]
  Average number of broken buds per vine: 0
Canadice grapevines; [5]
  Average number of broken buds per vine: 0.8
Canadice grapevines; [6]
  Average number of broken buds per vine: 1.2
Canadice grapevines; 1000 ppm soil drench 2 days after warming, evaluated 17 days after warming
  Average number of broken buds per vine: 1.7
Canadice grapevines; 1000 ppm soil drench 2 days after warming, evaluated 18 days after warming
  Average number of broken buds per vine: 1.7
Canadice grapevines; [7]
  Average number of broken buds per vine: 0.2
Canadice grapevines; [8]
  Average number of broken buds per vine: 0.7
Canadice grapevines; [9]
  Average number of broken buds per vine: 1.2
Canadice grapevines; [10]
  Average number of broken buds per vine: 1.7
Canadice grapevines; 1000 ppm soil drench 6 days after warming, evaluated 17 days after warming
  Average number of broken buds per vine: 2.3
Canadice grapevines; 1000 ppm soil drench 6 days after warming, evaluated 18 days after warming
  Average number of broken buds per vine: 2.5
Canadice grapevines; [11]
  Average number of broken buds per vine: 0.5
Canadice grapevines; [12]
  Average number of broken buds per vine: 1.8
Canadice grapevines; [13]
  Average number of broken buds per vine: 2.3
Canadice grapevines; [14]
  Average number of broken buds per vine: 2.3
Canadice grapevines; 1000 ppm soil drench 10 days after warming, evaluated 17 days after warming
  Average number of broken buds per vine: 2.3
Canadice grapevines; 1000 ppm soil drench 10 days after warming, evaluated 18 days after warming
  Average number of broken buds per vine: 2.7
Perennial plant
  Effect on bud break: no appreciable effect on bud break
Concord grapevines [2]; Apr. 23, 2008
  Average rating of bud break (1-6 scale): 1.0
Concord grapevines [2]; April 28
  Average rating of bud break (1-6 scale): 1.6
Concord grapevines [2]; April 30
  Average rating of bud break (1-6 scale): 1.8
Concord grapevines [2]; May 2
  Average rating of bud break (1-6 scale): 1.8
Concord grapevines [2]; May 5
  Average rating of bud break (1-6 scale): 2.1
Concord grapevines [2]; May 7
  Average rating of bud break (1-6 scale): 2.6
Concord grapevines [2]; May 9
  Average rating of bud break (1-6 scale): 2.9
Concord grapevines [2]; May 12
  Average rating of bud break (1-6 scale): 3.0
Concord grapevines [2]; May 14
  Average rating of bud break (1-6 scale): 3.0
Concord grapevines [2]; May 16
  Average rating of bud break (1-6 scale): 3.4
Concord grapevines [2]; May 19
  Average rating of bud break (1-6 scale): 4.2
Concord grapevines [2]; May 21
  Average rating of bud break (1-6 scale): 4.6
Concord grapevines [2]; May 23
  Average rating of bud break (1-6 scale): 4.9
Concord grapevines [2]; May 28
  Average rating of bud break (1-6 scale): 5.4
